One test concerns the target CDK2/CyclinE1 (Homo sapiens (Human), UniProt P24941). Nature of the test: CDK2/CyclinE1 kinase inhibitory activity (Caliper mobility shift). It counts as biochemical. Particulars: read-out: CDK2/Cyclin El IC50.
A further test deals with CDK1/CyclinB (Homo sapiens (Human), UniProt P06493). As to the kind of experiment: CDK1/CyclinB kinase inhibitory activity (Caliper mobility shift). In kind it is biochemical. Particulars: read-out: CDK1/Cyclin B1 IC50.
The target in a further test is CDK4/Cyclin D1 (Homo sapiens (Human), UniProt P11802). Nature of the test: CDK4/CyclinD1 kinase inhibitory activity (Caliper mobility shift). In kind it is biochemical.
Chain of CDK4/Cyclin D1 (P11802 whole entry): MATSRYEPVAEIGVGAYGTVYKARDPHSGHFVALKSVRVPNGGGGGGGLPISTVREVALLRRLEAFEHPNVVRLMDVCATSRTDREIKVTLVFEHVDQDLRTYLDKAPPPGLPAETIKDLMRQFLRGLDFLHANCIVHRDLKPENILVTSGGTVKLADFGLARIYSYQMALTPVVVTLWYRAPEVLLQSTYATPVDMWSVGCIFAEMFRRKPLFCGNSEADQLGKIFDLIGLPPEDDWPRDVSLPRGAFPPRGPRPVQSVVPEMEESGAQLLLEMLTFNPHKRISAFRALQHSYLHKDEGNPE
Chain of CDK4/Cyclin D1 (P24385 whole entry partner): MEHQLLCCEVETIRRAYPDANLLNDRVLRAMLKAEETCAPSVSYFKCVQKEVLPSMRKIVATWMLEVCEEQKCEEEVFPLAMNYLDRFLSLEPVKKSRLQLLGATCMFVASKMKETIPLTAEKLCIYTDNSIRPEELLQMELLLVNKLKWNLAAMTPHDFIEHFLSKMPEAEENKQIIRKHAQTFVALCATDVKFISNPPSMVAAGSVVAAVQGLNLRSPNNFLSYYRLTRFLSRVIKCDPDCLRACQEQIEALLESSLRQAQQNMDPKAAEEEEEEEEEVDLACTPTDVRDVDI
For another test, the target named is CDK6/CyclinD1 (Homo sapiens (Human), UniProt Q00534). Nature of the test: CDK6/CyclinD1 kinase inhibitory activity (Caliper mobility shift). In kind it is biochemical. Particulars: read-out: CDK6/Cyclin D1 IC50.
Chain of CDK6/CyclinD1 (Q00534 whole entry): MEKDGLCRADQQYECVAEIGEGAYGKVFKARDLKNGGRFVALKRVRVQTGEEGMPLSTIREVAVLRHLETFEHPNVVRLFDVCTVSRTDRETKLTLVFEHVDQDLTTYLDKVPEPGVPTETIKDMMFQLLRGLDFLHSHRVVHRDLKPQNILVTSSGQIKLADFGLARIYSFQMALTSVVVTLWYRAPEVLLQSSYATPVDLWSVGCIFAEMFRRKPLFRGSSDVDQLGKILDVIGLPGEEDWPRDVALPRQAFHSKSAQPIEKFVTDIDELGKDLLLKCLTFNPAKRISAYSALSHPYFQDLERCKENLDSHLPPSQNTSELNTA
Chain of CDK6/CyclinD1 (P24385 whole entry partner): as the sequence (P24385 whole entry partner) above
In another test the target is CDK7/CyclinH/MAT1 (Homo sapiens (Human), UniProt P50613). As to the kind of experiment: CDK7/CyclinH/MAT1 kinase inhibitory activity (Caliper mobility shift). It counts as biochemical.
Chain of CDK7/CyclinH/MAT1 (P50613 whole entry): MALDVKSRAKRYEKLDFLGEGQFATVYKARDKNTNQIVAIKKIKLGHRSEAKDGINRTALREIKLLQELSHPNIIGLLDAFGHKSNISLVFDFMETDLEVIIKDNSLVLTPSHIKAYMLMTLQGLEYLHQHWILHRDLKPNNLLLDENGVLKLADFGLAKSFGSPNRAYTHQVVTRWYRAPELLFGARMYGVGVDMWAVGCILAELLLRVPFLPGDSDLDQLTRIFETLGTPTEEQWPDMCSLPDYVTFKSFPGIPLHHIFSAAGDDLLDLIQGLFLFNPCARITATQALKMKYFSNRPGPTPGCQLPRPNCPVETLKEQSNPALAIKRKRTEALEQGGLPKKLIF
Chain of CDK7/CyclinH/MAT1 (P51946 whole entry partner): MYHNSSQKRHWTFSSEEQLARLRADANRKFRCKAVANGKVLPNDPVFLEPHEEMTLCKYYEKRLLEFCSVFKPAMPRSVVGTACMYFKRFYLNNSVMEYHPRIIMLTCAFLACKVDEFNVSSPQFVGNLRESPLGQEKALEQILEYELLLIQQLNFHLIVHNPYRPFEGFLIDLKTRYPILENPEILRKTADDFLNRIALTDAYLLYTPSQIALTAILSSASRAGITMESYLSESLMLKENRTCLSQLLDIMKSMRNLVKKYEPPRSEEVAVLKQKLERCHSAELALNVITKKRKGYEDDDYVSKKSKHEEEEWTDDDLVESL
Chain of CDK7/CyclinH/MAT1 (P51948 whole entry partner): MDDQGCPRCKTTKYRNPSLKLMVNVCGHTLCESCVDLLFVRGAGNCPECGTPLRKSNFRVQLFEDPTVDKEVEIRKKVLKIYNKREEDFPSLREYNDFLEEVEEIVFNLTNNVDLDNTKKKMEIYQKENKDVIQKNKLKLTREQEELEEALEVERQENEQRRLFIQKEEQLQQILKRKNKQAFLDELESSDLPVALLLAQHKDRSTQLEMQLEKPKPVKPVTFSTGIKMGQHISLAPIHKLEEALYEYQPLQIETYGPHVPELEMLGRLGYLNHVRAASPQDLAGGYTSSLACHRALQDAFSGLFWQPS
For the next test, the target named is CDK9/CyclinT1 (Homo sapiens (Human), UniProt P50750). Nature of the test: CDK9/CyclinT1 kinase inhibitory activity (Caliper mobility shift). The following applies: read-out: CDK9/Cyclin T1 IC50. It counts as biochemical.
Chain of CDK9/CyclinT1 (P50750 whole entry): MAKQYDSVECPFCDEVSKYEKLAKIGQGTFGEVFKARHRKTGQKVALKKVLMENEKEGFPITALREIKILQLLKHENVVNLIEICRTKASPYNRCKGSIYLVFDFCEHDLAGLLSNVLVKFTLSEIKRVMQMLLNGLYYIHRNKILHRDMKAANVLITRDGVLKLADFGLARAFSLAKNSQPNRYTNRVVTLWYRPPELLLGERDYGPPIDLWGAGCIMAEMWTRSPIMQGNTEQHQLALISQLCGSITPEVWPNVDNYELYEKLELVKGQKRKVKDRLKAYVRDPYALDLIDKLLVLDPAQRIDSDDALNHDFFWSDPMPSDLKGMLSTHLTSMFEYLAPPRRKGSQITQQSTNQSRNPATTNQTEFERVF
Chain of CDK9/CyclinT1 (O60563 whole entry partner): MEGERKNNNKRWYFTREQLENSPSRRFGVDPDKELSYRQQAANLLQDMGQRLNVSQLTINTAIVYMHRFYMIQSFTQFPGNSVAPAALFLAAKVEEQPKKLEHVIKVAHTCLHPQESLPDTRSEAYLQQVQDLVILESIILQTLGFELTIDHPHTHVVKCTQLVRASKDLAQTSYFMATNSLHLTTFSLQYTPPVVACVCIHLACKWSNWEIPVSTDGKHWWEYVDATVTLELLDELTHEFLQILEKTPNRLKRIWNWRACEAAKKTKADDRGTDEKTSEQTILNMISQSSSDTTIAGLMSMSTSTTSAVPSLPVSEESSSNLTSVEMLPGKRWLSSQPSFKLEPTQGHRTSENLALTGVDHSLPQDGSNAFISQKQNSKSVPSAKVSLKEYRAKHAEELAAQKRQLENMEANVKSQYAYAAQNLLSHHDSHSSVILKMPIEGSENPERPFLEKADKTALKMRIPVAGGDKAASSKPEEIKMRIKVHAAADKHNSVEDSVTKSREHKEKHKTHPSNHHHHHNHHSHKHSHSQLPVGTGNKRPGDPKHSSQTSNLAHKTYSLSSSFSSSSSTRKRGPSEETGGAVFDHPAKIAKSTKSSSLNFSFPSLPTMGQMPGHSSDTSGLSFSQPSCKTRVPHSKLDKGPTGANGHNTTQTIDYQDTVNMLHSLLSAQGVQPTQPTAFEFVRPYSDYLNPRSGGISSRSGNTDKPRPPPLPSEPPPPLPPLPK
In another test the test system is ER+BC. Particulars: cited from earlier work.

Like-named read-outs stand apart in the source and are kept apart here.

Chain of CDK1/CyclinB (P06493 whole entry): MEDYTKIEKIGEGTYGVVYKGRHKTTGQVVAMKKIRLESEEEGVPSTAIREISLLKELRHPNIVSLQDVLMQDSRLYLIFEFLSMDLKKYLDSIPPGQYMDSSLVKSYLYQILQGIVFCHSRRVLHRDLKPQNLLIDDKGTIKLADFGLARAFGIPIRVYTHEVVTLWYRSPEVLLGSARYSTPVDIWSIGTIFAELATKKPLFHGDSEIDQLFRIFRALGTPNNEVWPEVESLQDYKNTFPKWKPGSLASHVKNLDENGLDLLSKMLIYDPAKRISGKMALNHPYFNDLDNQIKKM
Chain of CDK1/CyclinB (P14635 whole entry partner): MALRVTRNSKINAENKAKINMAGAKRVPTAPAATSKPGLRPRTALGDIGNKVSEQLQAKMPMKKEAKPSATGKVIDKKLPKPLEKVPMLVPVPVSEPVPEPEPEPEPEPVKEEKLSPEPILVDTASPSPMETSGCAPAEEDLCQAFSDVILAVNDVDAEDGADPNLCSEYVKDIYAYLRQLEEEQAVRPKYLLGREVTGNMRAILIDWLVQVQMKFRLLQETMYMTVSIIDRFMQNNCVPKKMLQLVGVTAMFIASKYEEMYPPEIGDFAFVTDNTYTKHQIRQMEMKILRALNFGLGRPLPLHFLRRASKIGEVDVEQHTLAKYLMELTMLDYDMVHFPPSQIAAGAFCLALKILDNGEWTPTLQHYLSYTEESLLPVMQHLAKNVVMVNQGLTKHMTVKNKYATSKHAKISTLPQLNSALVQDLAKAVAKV

Turning to `Cn1cc(S(=O)(=O)N2CCC(Nc3ncc(C#N)c(OCC4(C)CCC4)n3)CC2)cn1` [Example 60], the IC50 on CDK2/CyclinE1 was less than 10 nM; on CDK1/CyclinB, less than 10 nM; at CDK4/Cyclin D1, less than 10 nM; at CDK6/CyclinD1 it was 10 to 100 nM; at CDK7/CyclinH/MAT1 it was 100 to 1000 nM; at CDK9/CyclinT1, 100 to 1000 nM.

With `Cn1cc(S(=O)(=O)N2CCC(Nc3ncc(C#N)c(OCC4(C)CC(F)(F)C4)n3)CC2)cn1` [Example 61], the IC50 was less than 10 nM on CDK2/CyclinE1; 10 to 100 nM on CDK1/CyclinB; less than 10 nM at CDK4/Cyclin D1; 10 to 100 nM at CDK6/CyclinD1; 100 to 1000 nM on CDK7/CyclinH/MAT1; 100 to 1000 nM on CDK9/CyclinT1.

As to `Cn1cc(S(=O)(=O)N2CCC(Nc3ncc(C#N)c(OCC4(C)CCCC4)n3)CC2)cn1` [Example 62], the IC50 on CDK2/CyclinE1 is less than 10 nM; on CDK1/CyclinB it was less than 10 nM; at CDK4/Cyclin D1 it was less than 10 nM; at CDK6/CyclinD1, 10 to 100 nM; on CDK7/CyclinH/MAT1, 100 to 1000 nM; on CDK9/CyclinT1, 100 to 1000 nM.

In the case of `Cn1ccc(S(=O)(=O)N2CCC(Nc3ncc(C#N)c(OCC4(C)CCCC4)n3)CC2)n1` [Example 63], the IC50 on CDK2/CyclinE1 was less than 10 nM; on CDK1/CyclinB it was less than 10 nM; at CDK4/Cyclin D1 it was less than 10 nM; at CDK6/CyclinD1 it was less than 10 nM; on CDK7/CyclinH/MAT1, 100 to 1000 nM; at CDK9/CyclinT1 it was 100 to 1000 nM.

As for `N#Cc1cnc(Nc2ccc(S(N)(=O)=O)cc2)nc1N1CCCCC1` [Example 65, 4-((5-cyano-4-(piperidin-1-yl)pyrimidin-2-yl)amino) benzenesulfonamide], the IC50 is less than 10 nM on CDK2/CyclinE1; 10 to 100 nM at CDK1/CyclinB; 10 to 100 nM on CDK4/Cyclin D1; 100 to 1000 nM on CDK6/CyclinD1; not below 1000 nM at CDK7/CyclinH/MAT1; 100 to 1000 nM at CDK9/CyclinT1.

As to `N#Cc1cnc(Nc2ccc(S(N)(=O)=O)cc2)nc1N1CCCCCC1` [Example 68], the IC50 was less than 10 nM at CDK2/CyclinE1; 10 to 100 nM at CDK1/CyclinB; 10 to 100 nM at CDK4/Cyclin D1; 10 to 100 nM at CDK6/CyclinD1; not below 1000 nM at CDK7/CyclinH/MAT1; 10 to 100 nM at CDK9/CyclinT1.

`N#Cc1cnc(Nc2ccc(S(N)(=O)=O)cc2)nc1N1CCC[C@H](F)C1` [Example 81]: the IC50 on CDK2/CyclinE1 was 10 to 100 nM; at CDK1/CyclinB it was 100 to 1000 nM; at CDK4/Cyclin D1 it was 10 to 100 nM; at CDK6/CyclinD1, 100 to 1000 nM; on CDK7/CyclinH/MAT1, not below 1000 nM; on CDK9/CyclinT1 it was 100 to 1000 nM.

As for `N#Cc1cnc(Nc2ccc(S(N)(=O)=O)cc2)nc1N1CCC(O)CC1` [Example 82], the IC50 at CDK2/CyclinE1 was 10 to 100 nM; on CDK1/CyclinB it was 100 to 1000 nM; on CDK4/Cyclin D1 it was 100 to 1000 nM; on CDK6/CyclinD1 it was 100 to 1000 nM; at CDK7/CyclinH/MAT1, not below 1000 nM; at CDK9/CyclinT1, 100 to 1000 nM.

`CNS(=O)(=O)c1ccc(Nc2ncc(C#N)c(N3CCCCC3)n2)cc1` [Example 91]: the IC50 on CDK2/CyclinE1 is less than 10 nM; at CDK1/CyclinB it was 10 to 100 nM; at CDK4/Cyclin D1 it was 10 to 100 nM; at CDK6/CyclinD1 it was 100 to 1000 nM; at CDK7/CyclinH/MAT1, not below 1000 nM; on CDK9/CyclinT1 it was 100 to 1000 nM.

As for `Cc1cccc(-c2nc(Nc3ccc(S(N)(=O)=O)cc3)ncc2C#N)c1` [Example 94], the IC50 at CDK2/CyclinE1 was less than 10 nM; at CDK1/CyclinB, 10 to 100 nM; at CDK4/Cyclin D1 it was 10 to 100 nM; at CDK6/CyclinD1, 100 to 1000 nM; on CDK7/CyclinH/MAT1 it was not below 1000 nM; on CDK9/CyclinT1 it was 10 to 100 nM.

As to `N#Cc1cnc(Nc2ccc(S(N)(=O)=O)cc2)nc1-c1cccc(C2CC2)c1` [Example 96], the IC50 was 10 to 100 nM on CDK2/CyclinE1; 100 to 1000 nM at CDK1/CyclinB; 10 to 100 nM on CDK4/Cyclin D1; not below 1000 nM on CDK6/CyclinD1; not below 1000 nM at CDK7/CyclinH/MAT1; 100 to 1000 nM at CDK9/CyclinT1.

Take `N#Cc1cnc(Nc2ccc(S(N)(=O)=O)cc2)nc1-c1cccc(O)c1` [Example 98]: the IC50 at CDK2/CyclinE1 was less than 10 nM; at CDK1/CyclinB, 10 to 100 nM; on CDK4/Cyclin D1, 10 to 100 nM; at CDK6/CyclinD1 it was 10 to 100 nM; at CDK7/CyclinH/MAT1 it was not below 1000 nM; at CDK9/CyclinT1, 10 to 100 nM.

Turning to `[2H]C([2H])([2H])NS(=O)(=O)c1ccc(Nc2ncc(C(F)(F)F)c(OC3CCCC3)n2)cc1` [Example 108], the IC50 was less than 10 nM on CDK2/CyclinE1; 10 to 100 nM on CDK1/CyclinB; 10 to 100 nM at CDK4/Cyclin D1; 100 to 1000 nM at CDK6/CyclinD1; not below 1000 nM at CDK7/CyclinH/MAT1; not below 1000 nM at CDK9/CyclinT1.

With `CS(=O)(=O)N1CCC(Nc2ncc(C(F)(F)F)c(OC3CCC3)n2)CC1` [Example 126], the IC50 is less than 10 nM on CDK2/CyclinE1; 10 to 100 nM on CDK1/CyclinB; 10 to 100 nM on CDK4/Cyclin D1; 10 to 100 nM on CDK6/CyclinD1; 100 to 1000 nM at CDK7/CyclinH/MAT1; 100 to 1000 nM at CDK9/CyclinT1.

Consider `CS(=O)(=O)N1CCC(Nc2ncc(C(F)(F)F)c(OC3CCCCC3)n2)CC1` [Example 127], for which the IC50 at CDK2/CyclinE1 was less than 10 nM; on CDK1/CyclinB it was 10 to 100 nM; at CDK4/Cyclin D1, less than 10 nM; at CDK6/CyclinD1 it was 100 to 1000 nM; at CDK7/CyclinH/MAT1, 100 to 1000 nM; at CDK9/CyclinT1, 10 to 100 nM.

As to `CC1(COc2nc(NC3CCN(S(C)(=O)=O)CC3)ncc2C(F)(F)F)CCCC1` [Example 128], the IC50 was less than 10 nM at CDK2/CyclinE1; 10 to 100 nM at CDK1/CyclinB; less than 10 nM at CDK4/Cyclin D1; 10 to 100 nM on CDK6/CyclinD1; not below 1000 nM on CDK7/CyclinH/MAT1; 10 to 100 nM on CDK9/CyclinT1.

As to `CNS(=O)(=O)N1CCC(Nc2ncc(C(F)(F)F)c(OC3CCCCCC3)n2)CC1` [Example 129], the IC50 on CDK2/CyclinE1 is less than 10 nM; on CDK1/CyclinB, 10 to 100 nM; on CDK4/Cyclin D1 it was less than 10 nM; on CDK6/CyclinD1, 100 to 1000 nM; on CDK7/CyclinH/MAT1 it was not below 1000 nM; at CDK9/CyclinT1, 10 to 100 nM.

For the compound “Palbociclib plus fulvestrant [Palbociclib+fulvestrant]”, the “median PFS” value was 7.6 month in the test on ER+BC (CCNE1 high) and 14.1 month in the test on ER+BC (CCNE1 low).
